# Tests used:
# [1] = Clinical chemistry profile from toxicology screen of NOD mice; type: in vivo, mouse; conditions: 20 weeks of age
# From the text: The results listed in Table 1 illustrate an absence of clinical signs of toxicity after prolonged treatment with AHRL1. Table 1 lists the results of a clinical chemistry profile from a toxicology screen of the AHRL1 treated, TCDD treated, and vehicle treated mice. The clinical chemistry panel includes tests for substances in the blood that have biological functions, metabolites or waste products, and substances that indicate cell damage or disease. The concentrations of the substances listed in Table 1 were measured at 20 weeks of age. The concentrations are reported as milligrams per deciliter (mg/dl), grams per deciliter (g/dl), units per liter (U/L), or milli equivalents per liter (mEq/L).
# FIGS. 18a-18r show the clinical chemistry profile from a toxicology screen for three groups: AHRL1 treated mice, vehicle treated mice, and untreated mice. For the test group, the mice were treated with AHRL1. The vehicle given was the carrier for the AHRL1 compound. The carrier included 30% DMSO, 20% Cremaphor, and 50% Peceol. The mice were tested after 12 weeks of exposure. The clinical chemistry panel includes tests for substances in the blood that have biological functions, metabolites or waste products, and substances that indicate cell damage or disease.
# NOD mice = experiment: Flow cytometry of leukocyte composition of pancreas, PLN and spleen of NOD mice; type: in vivo, mouse
# Protocol: The leukocyte composition of the pancreas and draining lymph nodes was analyzed at 12, 15, and 20 weeks of age using flow cytometry. Mice were sacrificed at 12, 15, and 20 weeks of age, draining lymph nodes and pancreata were excised, and single cell suspensions were prepared for analysis with flow cytometry. Fc receptors were blocked with rat immunoglobulin G (IgG) acquired from Jackson ImmunoResearch. The cells were stained with the following antibodies: CD4 (RM4, eBioscience), CD8 (53-6.7, eBioscience), CD19 (1D3, eBioscience), CD45 (30-F11, BD Biosciences), Foxp3 (FJK-16s, eBioscience), Nrp1 (3DS304M, eBioscience), CD25 (PC61.5, eBioscience), RORγt (AFKJS-9, eBioscience). For intracellular staining, cells were fixed and permeabilized using a Foxp3 Fixation/Permeabilization buffer acquired from eBioscience (San Diego, Calif.). Data were acquired using a FC-500 flow cytometer (BECKMAN COULTER) and compensated and analyzed using FLOWJO software. Fluorescence minus one (FMO) controls were used for setting gates for analysis.
# FIGS. 3a-3f illustrate results comparing the leukocyte composition of the vehicle treated NOD mice to the ARHL1 treated NOD mice from FIG. 2b. The leukocyte composition of the vehicle treated NOD mice to the ARHL1 treated NOD mice was analyzed at 12 weeks of age. Student's t-test was used for analysis. Sample size of n=5-9 mice per group was used. A single asterisk (*) signifies p≤0.05; a double asterisk (**) signifies p≤0.01; a triple asterisk (***) signifies p≤0.001.
# FIGS. 4a-4t illustrate results comparing leukocyte composition of draining lymph nodes in vehicle treated, AHRL1 treated, and TCDD treated NOD mice at 12, 15, and 20 weeks of age. Seven-week-old NOD mice were treated with vehicle, AHRL1, or TCDD as described with reference to FIG. 2b. At 12 weeks of age, 15 weeks of age, and 20 weeks of age, the draining lymph nodes were excised from the mice and stained with CD4 antibodies and Foxp3 antibodies. The results were analyzed by flow cytometry and plotted as average +/−standard deviation (s.d.). A sample size of n=5-9 mice per group was used. A single asterisk (*) signifies p≤0.05.
# AhR = target: T1, AhR (Mus musculus, UniProt P30561); experiment: Competitive inhibition of [3H] 3-MC binding to AhR
# T1 sequence (P30561 10-848): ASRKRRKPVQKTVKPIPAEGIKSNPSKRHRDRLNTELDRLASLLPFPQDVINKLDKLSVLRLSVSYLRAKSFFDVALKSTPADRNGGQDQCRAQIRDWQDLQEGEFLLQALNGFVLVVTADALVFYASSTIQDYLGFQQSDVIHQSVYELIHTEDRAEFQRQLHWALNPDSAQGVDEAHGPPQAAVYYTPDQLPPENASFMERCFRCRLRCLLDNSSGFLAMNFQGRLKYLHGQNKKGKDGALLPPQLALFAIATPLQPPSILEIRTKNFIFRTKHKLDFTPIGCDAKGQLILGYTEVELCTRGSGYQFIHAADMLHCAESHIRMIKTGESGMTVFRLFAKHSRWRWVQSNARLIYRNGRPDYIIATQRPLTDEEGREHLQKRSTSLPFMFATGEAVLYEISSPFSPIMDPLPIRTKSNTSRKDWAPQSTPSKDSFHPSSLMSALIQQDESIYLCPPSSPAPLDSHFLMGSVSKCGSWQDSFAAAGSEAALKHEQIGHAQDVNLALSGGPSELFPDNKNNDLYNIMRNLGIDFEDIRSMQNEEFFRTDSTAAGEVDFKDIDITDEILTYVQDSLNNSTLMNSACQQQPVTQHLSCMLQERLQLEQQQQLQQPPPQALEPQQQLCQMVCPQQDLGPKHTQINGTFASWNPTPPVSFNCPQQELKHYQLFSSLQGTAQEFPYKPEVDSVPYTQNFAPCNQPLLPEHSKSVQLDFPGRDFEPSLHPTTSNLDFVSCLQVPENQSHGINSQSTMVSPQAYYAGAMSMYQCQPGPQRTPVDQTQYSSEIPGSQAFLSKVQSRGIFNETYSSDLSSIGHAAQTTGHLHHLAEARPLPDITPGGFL
# From the text: 3-MC binding to AhR. […] 3-methylcholanthrene (3-MC) to AhR.
# B6D2F1 host mice = experiment: 15-day GVHD model in B6D2F1 host mice; type: in vivo, mouse
# Protocol: GVHD was established using donor cells obtained from wild type or AhR-deficient mice. B6D2F1 host mice were injected with wild type (WT) or AhR^−/− splenocytes to initiate the graft versus host (GVH) response. Due to a limited number of AhR-deficient mice available, whole splenocytes rather than purified T cells were used to initiate the GVH response. Host mice were given AHRL1 or vehicle treatments daily for 15 days. The vehicle consisted of a mixture of 6.7% anisole and peanut oil. A single loading dose of 10 mg/kg AHRL1 was given at the time of donor cell injection and a maintenance dose of 2 mg/kg AHRL1 was given every day thereafter until termination of the experiment on day 15.
# The progression of GVHD in the host mice was monitored and a clinical GVHD pathology score was calculated. At termination of the 15-day study, each animal was evaluated and given a clinical GVHD pathology score based on five criteria: changes in weight, posture, activity, fur texture, and mortality. The clinical GVHD pathology score was assessed on a scale of 0 to 3, where 0 was normal, 1 was moderate morbidity, 2 was severe morbidity, and 3 was death.
# In a separate study, the effect of AHRL1 on donor cell engraftment was examined and directly compared with the effect of TCDD. B6D2F1 host mice in groups of 6 were injected with splenocytes from C57Bl/6 mice to initiate the GVH response, and treated with AHRL1 or vehicle daily for 15 days. The vehicle consisted of a mixture of 6.7% anisole and peanut oil. A single loading dose of 10 mg/kg AHRL1 was given at the time of donor cell injection and a maintenance dose of 2 mg/kg AHRL1 was given every day thereafter until termination of the experiment on day 15. 15 μg/kg of TCDD was given to an additional group of 6 mice on day 0 as a positive control. […] The donor cells were identified in the host spleen as the H-2D^d negative population.
# CYP1A1 = CYP1A1 mRNA induction in Hepa-1 cells; conditions: 1 nM
# Protocol: The levels of CYP1A1 expression were determined by measuring CYP1A1 messenger ribonucleic acid (mRNA) levels.
compound,measurement,setting,value
"Clc1cc2c(cc1Cl)Oc1cc(Cl)c(Cl)cc1O2 [TCDD, 2,3,7,8-tetrachlorodibenzo-p-dioxin]",Alanine Aminotransferase (ALT),[1],24.0 ± 2.5 U/L
same,Albumin,[1],3.4 ± 0.1 g/dL
same,Alkaline Phosphatase,[1],80.0 ± 14.7 U/L
same,Anion Gap,[1],34.0 ± 1.2 mEq/L
same,Bicarbonate (tCO2),[1],18.6 ± 1.4 mEq/L
same,"Bilirubin, Total",[1],0.43 ± 0.64 mg/dL
same,Blood Urine Nitrogen (BUN),[1],20.0 ± 2.7 mg/dL
same,Calcium,[1],10.8 ± 0.4 mg/dL
same,Chloride,[1],109.5 ± 1.7 mEq/L
same,Cholesterol,[1],91.9 ± 5.1 mg/dL
same,Creatinine,[1],0.3 ± 0.1 mg/dL
same,Creatinine Kinase (CK),[1],398.3 ± 248.7 U/L
same,Gamma-glutamyl transferase (GGT),[1],0.0 ± 0.0 U/L
same,Phosphorous,[1],8.2 ± 1.2 mg/dL
same,Potassium,[1],9.7 ± 0.4 mEq/L
same,Sodium,[1],151.9 ± 2.4 mEq/L
same,Total Protein,[1],5.6 ± 0.2 g/dL
same,percentage of CD4+Foxp3- cells that were Nrp1+,"NOD mice; NOD.Foxp3WT mice, 20 weeks of age",decrease
same,percentage of Foxp3+ cells gated on CD4+ cells,"NOD mice; PLN, 12 weeks of age",higher percentage
same,percentage of Foxp3+ cells gated on CD4+ cells,"NOD mice; PLN, 15 weeks of age",higher percentage
same,percentage of Foxp3+ cells gated on CD4+ cells,"NOD mice; PLN, 20 weeks of age",higher percentage
same,percentage of Foxp3+ cells gated on CD4+ cells,"NOD mice; spleen, 12 weeks of age, vs vehicle",higher percentage
same,percentage of Foxp3+ cells gated on CD4+ cells,"NOD mice; spleen, 15 weeks of age, vs vehicle",higher percentage
same,percentage of Foxp3+ cells gated on CD4+ cells,"NOD mice; spleen, 20 weeks of age, vs vehicle",higher percentage
same,IC50,AhR,4.7 nM
same,total number of donor CD4+ and CD8+ T cells engrafted in the host spleen,"B6D2F1 host mice; day 15, AHRL1 10 mg/kg then 2 mg/kg daily, TCDD 15 μg/kg day 0",reduced total number
same,percentage and number of activated donor CD8+ T cells expressing a CTL phenotype (CD8+CD44hiCD45RBlow),"B6D2F1 host mice; host spleen, day 15",reduce the percentage and number
same,percentage and number of host B cells (CD19+ cells),"B6D2F1 host mice; host spleen, day 15, vs vehicle",increased percentage and number
same,CYP1A1 mRNA induction,CYP1A1,comparable level of induction

# From patent US10308649B2, “Compounds and methods to suppress autoimmune response” (Oregon State University, priority 2014, dated 2019)
